Test results taken from ChEMBL document CHEMBL5375943, “The Importance of Tracking "Missing" Metabolites: How and Why?” (J Med Chem, 2023).
Values belong to the molecule of their own block, whether it stands above or below them.

Legend:
[1] = biological target: Cytochrome P450 3A4 (Homo sapiens, UniProt P08684); test: Inhibition of CYP3A4 in human liver microsome; type: ADME, microsomes
[2] = Clearance in Wistar rat at 3 mg/kg, iv incubated for 24 hrs by LC-MS/MS analysis; type: ADME, organism-based; conditions: in vivo
[3] = Elimination half life in human liver microsomes; type: ADME, Microsome; conditions: read-out: beta t1/2 (converted)
[4] = AUC (0 to t) in Sprague-Dawley rat at 10 mg/kg, po; type: ADME, organism-based; design: dose 10 mg/kg, route po; conditions: in vivo
[5] = Oral bioavailability in ICR mouse plasma at 5 mg/kg by LC-MS/MS analysis; type: ADME, organism-based
[6] = Stability in human plasma assessed as compound remaining incubated for 10 mins relative to control; type: ADME, cell-free; conditions: read-out: Stability
[7] = Elimination half life in human; type: ADME; conditions: read-out: beta t1/2
[8] = Metabolic stability in human plasma assessed as half life

Chain of Cytochrome P450 3A4 (P08684 whole entry): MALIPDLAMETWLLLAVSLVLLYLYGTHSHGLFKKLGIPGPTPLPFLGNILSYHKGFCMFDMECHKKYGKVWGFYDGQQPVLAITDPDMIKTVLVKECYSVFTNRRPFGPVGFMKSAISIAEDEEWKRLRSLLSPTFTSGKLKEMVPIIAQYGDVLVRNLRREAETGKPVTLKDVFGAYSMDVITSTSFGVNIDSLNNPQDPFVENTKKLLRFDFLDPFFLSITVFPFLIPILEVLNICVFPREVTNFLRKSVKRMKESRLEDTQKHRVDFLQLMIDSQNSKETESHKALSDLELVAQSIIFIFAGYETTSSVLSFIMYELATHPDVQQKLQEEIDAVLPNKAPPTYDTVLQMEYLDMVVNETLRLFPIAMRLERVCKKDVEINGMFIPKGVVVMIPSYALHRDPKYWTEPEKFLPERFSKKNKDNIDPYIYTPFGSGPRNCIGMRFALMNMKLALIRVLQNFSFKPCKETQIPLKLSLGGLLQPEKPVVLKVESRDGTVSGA

IC50 [1]: 0.55 µM
SMILES: C[C@H](c1nc2ncccc2c(=O)n1-c1ccc(O)cc1)N(Cc1cccnc1)C(=O)Cc1ccc(OC(F)(F)F)cc1

clearance [2]: 0.4 mL/min/kg
SMILES: C[C@H](O)[C@H]1CC[C@H]2[C@@H]3CC[C@H]4CC(C(=O)O)=CC[C@]4(C)[C@H]3CC[C@]12C

half-life [3]: 155 h
AUC(0-t) [4]: 0.19 µM·h
bioavailability [5]: 14.7%
SMILES: CCc1cc(/C(C)=N/OCc2ccc(C3CCCCC3)c(C(F)(F)F)c2)ccc1CN1CC(C(=O)O[C@H]2CC[C@@]3(C)C(=CC[C@H]4[C@@H]5CC[C@H]([C@H](C)CCCC(C)C)[C@@]5(C)CC[C@@H]43)C2)C1

remaining at 10 min [6]: 30%
SMILES: NCCOP(=O)(O)OC[C@@H](O)CNC(=O)c1ccncc1Nc1ccc(I)cc1F

half-life [3]: 171 h
bioavailability [5]: 20.4%
SMILES: C[C@H](OS(=O)(=O)O)[C@H]1CC[C@H]2[C@@H]3CC[C@H]4CC(C(=O)O)=CC[C@]4(C)[C@H]3CC[C@]12C

IC50 [1]: 0.6 µM
SMILES: OC1CC(O)(CN2CCC(COc3noc4cccc(O[C@H]5CCOC5)c34)CC2)CCO1 (stereo partly specified)

half-life [7]: > 168 h
SMILES: COc1ccc(Cl)cc1[C@]1(F)C(=O)Nc2cc(C(F)(F)F)ccc21 [FLINDOKALNER]

half-life [8]: 1 h
SMILES: COc1ccc2[nH]c([S+]([O-])Cc3ncc(C)c(OC)c3C)nc2c1 (stereo unspecified) [OMEPRAZOLE]
